Read-outs that look alike come from different tables or passages of the source.
Experiments:
[1] = system: BALB/c splenocytes (FoxP3+, CD25+ T regulatory cells); assay: FACS analysis of splenocytes treated 24 hours with HDAC inhibitor; assay type: cell-based, BALB/c mice
Method: Test agents were added to each plate at the concentrations indicated in the table below and were incubated for 24 hours prior to FACS analysis. FACS analysis consisted of the following markers: live/dead, CD45, CD3, CD4, CD25 and FoxP3.

[2] = system: CT26 subcutaneous tumor; assay type: in vivo; details: nanatinostat 25 mg/kg orally daily, anti-mPD-1 10 mg/kg intraperitoneally
Method: (§1) Nanatinostat alone and in combination with anti-mPD-1 was evaluated in the CT26 subcutaneous tumor model in Balb/c mice. Animals were dosed orally with nanatinostat at 25 mg/kg daily, and intraperitoneally with anti-mPD-1 at 10 mg/kg on a bi-weekly schedule. 8 animals per group were selected and tumors were collected for FACS and qPCR analysis on Day 9, 12-13 hours post dose. The remaining animals continued to receive their respective treatments until Day 21.
144 female Balb/c mice (date of birth: Aug. 1, 2017) purchased from Jackson Laboratories were inoculated for the study. Animals were housed for a stabilization period of 5 days prior to inoculation. Animals were housed in individual HEPA ventilated cages (Innocage® IVC, Innovive USA). Fluorescent lighting was provided on a 12-hour cycle. Temperature and humidity was monitored and recorded daily and maintained to the maximum extent possible between 68-74° F. (20-23° C.) and 30-70% humidity, respectively. 2920X.10 18% soy irradiated rodent feed (Envigo) and autoclaved acidified water (pH2.5-3) was provided ad libitum.
CT26 cells were cultured as per ATCC's recommended culture protocol. For inoculation, cells were washed in PBS, counted, and resuspended in cold PBS at a concentration of 250,000 viable cells/100 μl. Cell suspension was kept on ice during transport to the vivarium. Cells were prepared for injections by withdrawing cells into a chilled 1 ml syringe fitted with a 26G 7/8 (0.5 mm×22 mm) needle.
Animals were prepared as needed for injection using standard approved anesthesia, and the mice were shaved prior to injection. One mouse at a time was immobilized and the site of injection was disinfected with an alcohol swab. 100 μl of the cell suspension was subcutaneously injected into the rear flank of the mouse. Mice were marked by ear tagging.
Animals were monitored daily for palpable tumors, or any changes in appearance or behavior. Once tumors were palpable, they were measured using calipers. Tumor volume was calculated using the following equation (longest diameter×shortest diameter^2)/2.

[3] = system: T cells in CT26 tumors; assay: FACS analysis of CT26 tumors on Day 9; assay type: in vivo, Balb/c mice
Method: as §1
On Day 9, N=8/arm were harvested tumors for PD assessment 12-13 hours post last dose. Half of each tumor was placed in transfer buffer for FACS analysis.

[4] = system: gene expression in CT26 tumors; assay: qPCR gene expression analysis of CT26 tumors on Day 9; assay type: in vivo, Balb/c mice; details: Day 9, tumors
Method: as §1
On Day 9, N=8/arm was harvested tumors for PD assessment. Half of each tumor was flash frozen for subsequent qPCR analysis. Fragments of flash frozen tumors were transferred in RLT PLUS buffer (Qiagen) and loaded into labelled and prefilled tubes with beads and homogenized for 60 seconds at maximum speed. RNA was extracted with AllPrep DNA/RNA Mini kit, purchased from Qiagen, according to the manufacturer's protocol. RNA quantity and purity was evaluated by Synergy 2 Multi-Mode Reader according to the Biotec Protocol. 750 ng total RNA from each sample was used to generate cDNA in a 20 μl reaction. The reaction was performed to the standard of Superscript III First-Strand Synthesis protocol by ThermoFisher by using Eppendorf Mastercycler Pro. […] Gene expression data was analyzed on the ViiA7 system using ABI 2.1 software to generate the raw data. […]

[5] = system: exhausted T cell population (CD8+ T cells) from PBMC; assay: T cell exhaustion assay, CEFT-exhausted PBMC restimulated with DC and CEFT; assay type: cell-based, human; details: for IFN-γ release by restimulated CD8+ T cells (percent IFNγ secreting CD8+ cells, FIG. 11) / CD8+ T cell proliferation (FIG. 9B, 9C): restimulated with CEFT; for CD8+ T cell proliferation (FIG. 9B, 9C): compared to CEFT alone
Method: FIGS. 12A, 12B and 12C show the effects of anti-PD-1 and nanatinostat treatment on IFN-γ, TNFα, and TGFβ. Isolated PBMC were exhausted with CEFT-stimulation for 10 days prior to being restimulated with moDC and CEFT peptide with compound treatment for an additional 4 days. Luminex analysis was performed and levels of IFN-γ (FIG. 12A), TNFα (FIG. 12B), and TGFβ (FIG. 12C). Dotted lines denote anti-PD-1 control treatment and vehicle control treatment as indicated.
To test whether nanatinostat can be used to reverse T cell exhaustion, whether by itself or in combination with PD-1, a standard T cell exhaustion assay was used. Peripheral Blood Mononuclear Cells (PBMC) were separated over a density gradient from 3 single human donor buffy coats. PBMC were stimulated with pooled pathogen-specific class I peptides (CEFT) to generate an exhausted T cell population. Cells were then re-stimulated with CEFT and autologous monocyte-derived dendritic cells for a further time before testing in a final re-stimulation assay using replenished DC and CEFT to monitor reversal of exhaustion. […] One dose of HDAC inhibitor was tested and a single dose of anti-PD-1 was used. An unstimulated control and a reference HDAC inhibitor were also plated. Cultures were pulsed with 3H-thymidine and proliferation assessed. Supernatants were also harvested for cytokine analysis by multiplex. Samples of cells were stained with an antibody panel directed against CD4, CD8, PD-1, IL-15R, TIGIT, CD45RO, CCR7, IFNγ and CD25 and characterized using flow cytometry in order to confirm their exhausted phenotype, and whether expression levels were altered following exposure to the combination therapies. PBMC were also phenotyped using the above panel at day 0 to determine the initial frequency of cell populations.

[6] = 100 nM, 24 hours, percentage ± SD
[7] = 1 uM, 24 hours, percentage ± SD
[8] = listed as head prints 'nM' (1 nM), 24 hours, percentage ± SD
[9] = combination vs anti PD-1 only, nanatinostat only vs vehicle

Molecule | CD45+ [1, 6] | CD45+ CD3+ [1, 6] | CD45+ ([1]; 500 nM, 24 hours, percentage ± SD) | CD45+ [1, 7] | concentration at which the suppressive effect on FoxP3, CD25+ T cells was still seen ([1]; at least as low as) | CD45+ [1, 8] | CD45+ CD3+ CD4+ FoxP3+ [1, 8] | inhibition of tumor growth ([2]; Day 3) | inhibition of tumor growth ([2]; Day 4) | inhibition of tumor growth ([2]; Day 7) | inhibition of tumor growth ([2]; Day 9) | inhibition of tumor growth ([2]; Day 9, listed as nanatinostat) | CXCR3 expressing cell population in CD4+ T cells in tumors (FIG. 5A) [3, 9] | CXCR3 expressing cell population in CD8+ T cells in tumors (FIG. 5B) [3, 9] | CD8+ T-cell population in tumors ([3]; compared to the vehicle group) | T cell infiltration in tumors (FIG. 4) ([3]; compared to vehicle or anti-PD-1 group, p-value 0.007 for both) | KLRC2 expression on NK cells (FIG. 8) [4] | cell viability (FIG. 10A, 10B) ([5]; compared to Entinostat) | IFN-γ release by restimulated CD8+ T cells (percent IFNγ secreting CD8+ cells, FIG. 11) [5] | CD8+ T cell proliferation (FIG. 9B, 9C) [5]
O=C(NO)c1cnc(N2CC3C(C2)C3NCc2ccc3cc(F)ccc3n2)nc1 (centres unmarked) [Nanatinostat, 2-(6-{[(6-Fluoroquinolin-2-yl)methyl]amino}-3-azabicyclo[3.1.0]hex-3-yl)-N-hydroxypyrimidine-5-carboxamide] | 99.6 ± 0.12% | 94 ± 0.83% | 99.5 ± 0.29% | 99.6 ± 0.17% | ≤ 100 nM | 98.6 ± 0.36% | 12 ± 1.51% | 16.20% | 23.31% | 38.94% | 33.81% | 33% | no significant difference | no significant difference | higher | significantly increased | increased | well tolerated | little effect | negative effect
Nc1ccccc1NC(=O)c1ccc(CNC(=O)OCc2cccnc2)cc1 [Entinostat, reference compound] |  |  |  | 99.1 ± 0.27% |  |  |  |  |  |  |  |  |  |  |  |  |  |  | reduced | 
anti-PD-1 (Pembrolizumab): anti-PD-1 antibody used in the human T cell exhaustion assay [reference compound] |  |  |  |  |  |  |  |  |  |  |  |  |  |  |  |  |  |  |  | restored proliferation

Source: US20200368280A1, “EPIGENETIC MODIFIERS FOR USE IN CELLULAR IMMUNOTHERAPY” (Viracta Therapeutics, Inc., priority 2018, published 2020)
